Measured values as given in US20060134048A1, “Reduction of hair growth” (priority 2004, published 2006).

What was measured:
Human hair follicles = test: Human hair follicle growth assay; assay type: cell-based; settings: 24 hours pre-incubation with 0.1 mM caffeine, then laser 0.75W for 100 msec; hair shaft growth after four to six days
Method: Human Hair Follicle Growth Assay:
Human hair follicles in growth phase (anagen) were isolated from face-lift tissue (obtained from plastic surgeons) under dissecting scope using a scalpel and watchmakers forceps. The skin was sliced into thin strips exposing 2-3 rows of follicles that could readily be dissected. Follicles were placed into 0.5 ml William's E medium (Life Technologies, Gaithersburg, Md.) supplemented with 2 mM L-glutamine, 10 μg/ml insulin, 10 ng/ml hydrocortisone, 100 units of penicillin, 0.1 mg/ml streptomycin and 0.25 μg/ml amphotericin B. The follicles were incubated in 24-well plates (1 follicle/well) at 37° C. in an atmosphere of 5% CO2 and 95% air. The HSP inhibitor or compound that promotes apoptosis is dissolved into dimethyl sulfoxide as 100-fold stock solution. […] The length of hair follicle was assessed using an image analysis software system. The growth of hair fiber was calculated by the subtracting the follicle length on day 0 from that determined on day 7.
Hair follicles were pre-incubated for 24 hours with 0.1 mM concentration of caffeine, and then some of the follicles were laser treated at 0.75W for 100 msec using a Coherent diode laser system. The length of each follicle was measured and the follicles then were placed in a 37° C. incubator for four to six days. Following incubation the hair shaft growth was measured.

hamster flank organs = test: Golden Syrian Hamster assay; assay type: in vivo, Golden Syrian hamsters
Method: To evaluate the effectiveness of a composition in reducing hair growth (including when used in conjunction with heating), the flank organs of each of a group of hamsters are depilated by applying a thioglycolate based chemical depilatory (Surgex) and/or shaved. To one organ of each animal 10 μl. of vehicle alone once a day is applied, while to the other organ of each animal an equal amount of vehicle containing the HSP inhibitor or compound that promotes apoptosis under evaluation is applied. After three weeks of topical applications (one application per day for five days a week), with heating at a selected time(s) if the composition is used in conjunction with heating) the flank organs are shaved and the amount of recovered hair (hair mass) from each is weighed. Percent-reduction of hair growth is calculated by subtracting the hair mass (mg) value of the test compound treated side from the hair mass value of the vehicle treated side; the delta value obtained is then divided by the hair mass value of the vehicle treated side, and the resultant number is multiplied by 100. A composition including a vehicle 15% DMSO, 65% ethanol, 10% propylene glycol, and 10% di-propylene glycol and 5% quercetin by weight was tested in the Golden Syrian Hamster assay. […]

| SMILES | reduction in hair growth compared with the control group (Human hair follicles) | hair growth inhibition (hamster flank organs; 5% quercetin for four days prior to 15W/0.75 sec laser, compared to flank organs given the same laser pulse without quercetin pretreatment) [%] | hair growth inhibition (hamster flank organs; 5% quercetin topical only, three weeks, compared to vehicle control flank organs) [%] |
| --- | --- | --- | --- |
| Cn1c(=O)c2c(ncn2C)n(C)c1=O [caffeine] | significant reduction in hair growth | – | – |
| O=c1c(O)c(-c2ccc(O)c(O)c2)oc2cc(O)cc(O)c12 [quercetin] | – | 36 | 15 |
